What was measured:
Assay in all cases: Post-emergence efficacy, Method A
Assay type in all cases: in vivo
[1] = tested on: Chenopodium album (CHEAL); settings: Application rate 500 g/Ha, evaluated after 13 days; for Control of weed species after post-emergence application, CHEAL: 100=total damage to plant, 0=no damage; for Control of weed species CHEAL after post-emergence application (100=total damage to plant; 0=no damage to plant): Method A
Procedure: (§1) Seeds of a variety of test species were sown in standard soil in pots. After cultivation for 14 days (post-emergence) under controlled conditions in a glasshouse (at 24/16° C., day/night; 14 hours light; 65% humidity), the plants were sprayed with an aqueous spray solution derived from the dissolution of the technical active ingredient formula (I) in a small amount of acetone and a special solvent and emulsifier mixture referred to as IF50 (11.12% Emulsogen EL360 TM+44.44% N-methylpyrrolidone+44.44% Dowanol DPM glycol ether), to create a 50 g/l solution which was then diluted to required concentration using 0.25% or 1% Empicol ESC70 (Sodium lauryl ether sulphate)+1% ammonium sulphate as diluent.
(§2) The test plants were then grown in a glasshouse under controlled conditions (at 24/16° C., day/night; 14 hours light; 65% humidity) and watered twice daily. After 13 days the test was evaluated (100=total damage to plant; 0=no damage to plant).
(§3) Ipomoea hederacea (IPOHE), Euphorbia heterophylla (EPHHL), Chenopodium album (CHEAL), Amaranthus palmeri (AMAPA), Lolium perenne (LOLPE), Digitaria sanguinalis (DIGSA), Eleusine indica (ELEIN), Echinochloa crus-galli (ECHCG), Setaria faberi (SETFA)

[2] = tested on: Amaranthus palmeri (AMAPA); settings: Application rate 500 g/Ha, evaluated after 13 days; for Control of weed species after post-emergence application, AMAPA: 100=total damage to plant, 0=no damage
Procedure: as §1, §2, §3

[3] = tested on: Echinochloa crus-galli (ECHCG); settings: Application rate 500 g/Ha, evaluated after 13 days; for Control of weed species after post-emergence application, ECHCG: 100=total damage to plant, 0=no damage; for Control of weed species ECHCG after post-emergence application (100=total damage to plant; 0=no damage to plant): Method A
Procedure: as §1, §2, §3

Eleusine indica (ELEIN) = settings: Application rate 500 g/Ha, evaluated after 13 days; for Control of weed species after post-emergence application, ELEIN: 100=total damage to plant, 0=no damage; for Control of weed species ELEIN after post-emergence application (100=total damage to plant; 0=no damage to plant): Method A
Procedure: as §1, §2, §3

[4] = tested on: Euphorbia heterophylla (EPHHL); settings: Application rate 500 g/Ha, evaluated after 13 days; for Control of weed species EPHHL after post-emergence application (100=total damage to plant; 0=no damage to plant): Method A
Procedure: as §1, §2, §3

Setaria faberi (SETFA) = settings: Application rate 500 g/Ha, evaluated after 13 days; for Control of weed species after post-emergence application, SETFA: 100=total damage to plant, 0=no damage; for Control of weed species SETFA after post-emergence application (100=total damage to plant; 0=no damage to plant): Method A
Procedure: as §1, §2, §3

[5] = tested on: Digitaria sanguinalis (DIGSA); settings: Application rate 500 g/Ha, evaluated after 13 days; for Control of weed species after post-emergence application, DIGSA: 100=total damage to plant, 0=no damage; for Control of weed species DIGSA after post-emergence application (100=total damage to plant; 0=no damage to plant): Method A
Procedure: as §1, §2, §3

With `O=C([O-])C(F)(F)F.OCCC[n+]1ccc(-c2ncccn2)cn1` [Compound A206] the “Control of weed species after post-emergence application, CHEAL” value [1] was 90, the “Control of weed species after post-emergence application, AMAPA” value [2] was 60 and the “Control of weed species after post-emergence application, ECHCG” value [3] was 20. For the same molecule, the “Control of weed species after post-emergence application, ELEIN” value (Eleusine indica (ELEIN)) was 10, the “Control of weed species after post-emergence application, EPHHL” value ([4]; 100=total damage to plant, 0=no damage) was 60 and the “Control of weed species after post-emergence application, SETFA” value (Setaria faberi (SETFA)) was 10. For the same molecule, the “Control of weed species after post-emergence application, DIGSA” value [5] was 20.

For `Cc1n[n+](CCC(=O)O)ccc1-c1ccccn1.O=C([O-])C(F)(F)F` [Compound A145], the “Control of weed species CHEAL after post-emergence application (100=total damage to plant; 0=no damage to plant)” value [1] was 10, the “Control of weed species AMAPA after post-emergence application (100=total damage to plant; 0=no damage to plant)” value ([2]; Method A) was 10 and the “Control of weed species ECHCG after post-emergence application (100=total damage to plant; 0=no damage to plant)” value [3] was 0. For the same molecule, the “Control of weed species ELEIN after post-emergence application (100=total damage to plant; 0=no damage to plant)” value (Eleusine indica (ELEIN)) was 0, the “Control of weed species EPHHL after post-emergence application (100=total damage to plant; 0=no damage to plant)” value [4] was 10 and the “Control of weed species SETFA after post-emergence application (100=total damage to plant; 0=no damage to plant)” value (Setaria faberi (SETFA)) was 0. For the same molecule, the “Control of weed species DIGSA after post-emergence application (100=total damage to plant; 0=no damage to plant)” value [5] was 10.

`N[C@@H](CC[n+]1ccc(-c2ncccn2)cn1)C(=O)O.O=C(O)C(F)(F)F.O=C([O-])C(F)(F)F` [Compound A201, [(1S)-1-carboxy-3-(4-pyrimidin-2-ylpyridazin-1-ium-1-yl)propyl]ammonium 2,2,2-trifluoroacetate] was tested, and the “Control of weed species after post-emergence application, ECHCG” value [3] was 70, the “Control of weed species after post-emergence application, SETFA” value (Setaria faberi (SETFA)) was 80 and the “Control of weed species after post-emergence application, DIGSA” value [5] was 80.

For `CC(C[n+]1ccc(-c2ccncn2)cn1)C(=O)O.O=C([O-])C(F)(F)F` (stereo not drawn) [Compound A171], the “Control of weed species after post-emergence application, CHEAL” value [1] was 80, the “Control of weed species after post-emergence application, AMAPA” value [2] was 100 and the “Control of weed species after post-emergence application, ECHCG” value [3] was 60. For the same molecule, the “Control of weed species after post-emergence application, ELEIN” value (Eleusine indica (ELEIN)) was 80, the “Control of weed species after post-emergence application, SETFA” value (Setaria faberi (SETFA)) was 60 and the “Control of weed species after post-emergence application, DIGSA” value [5] was 60.

For `O=C(O)c1ccc(C[n+]2ccc(-c3ncccn3)cn2)cc1.O=C([O-])C(F)(F)F` [Compound A228], the “Control of weed species after post-emergence application, CHEAL” value [1] was 60, the “Control of weed species after post-emergence application, AMAPA” value [2] was 80 and the “Control of weed species after post-emergence application, ECHCG” value [3] was 10. For the same molecule, the “Control of weed species after post-emergence application, ELEIN” value (Eleusine indica (ELEIN)) was 10, the “Control of weed species after post-emergence application, SETFA” value (Setaria faberi (SETFA)) was 10 and the “Control of weed species after post-emergence application, DIGSA” value [5] was 20.

With `O=C([O-])C(F)(F)F.O=P(O)(O)CCC[n+]1ccc(-c2ncccn2)cn1` [Compound A233] the “Control of weed species after post-emergence application, CHEAL” value [1] was 100, the “Control of weed species after post-emergence application, AMAPA” value [2] was 100 and the “Control of weed species after post-emergence application, ECHCG” value [3] was 60. For the same molecule, the “Control of weed species after post-emergence application, ELEIN” value (Eleusine indica (ELEIN)) was 50, the “Control of weed species after post-emergence application, SETFA” value (Setaria faberi (SETFA)) was 70 and the “Control of weed species after post-emergence application, DIGSA” value [5] was 60.

In the case of `O=C([O-])C(F)(F)F.OCC[n+]1ccc(-c2ncccn2)cn1` [Compound A195, 2-(4-pyrimidin-2-ylpyridazin-1-ium-1-yl)ethanol 2,2,2-trifluoroacetate], the “Control of weed species after post-emergence application, CHEAL” value [1] is reported as 60, the “Control of weed species after post-emergence application, ECHCG” value [3] is reported as 10 and the “Control of weed species after post-emergence application, ELEIN” value (Eleusine indica (ELEIN)) is reported as 10. The “Control of weed species after post-emergence application, DIGSA” value [5] was 20.

`N#Cc1ccc(-c2cc[n+](CCC(=O)O)nc2)nc1.O=C([O-])C(F)(F)F` [Compound A176] was tested, and the “Control of weed species after post-emergence application, CHEAL” value [1] was 30, the “Control of weed species after post-emergence application, AMAPA” value [2] was 40 and the “Control of weed species after post-emergence application, ECHCG” value [3] was 30. For the same molecule, the “Control of weed species after post-emergence application, ELEIN” value (Eleusine indica (ELEIN)) was 70, the “Control of weed species after post-emergence application, SETFA” value (Setaria faberi (SETFA)) was 40 and the “Control of weed species after post-emergence application, DIGSA” value [5] was 30.

`COC(=O)c1ccc(C[n+]2ccc(-c3ncccn3)cn2)cc1.O=C([O-])C(F)(F)F` [Compound A229] was tested, and the “Control of weed species after post-emergence application, CHEAL” value [1] was 0, the “Control of weed species after post-emergence application, AMAPA” value [2] was 10 and the “Control of weed species after post-emergence application, ECHCG” value [3] was 0. For the same molecule, the “Control of weed species after post-emergence application, ELEIN” value (Eleusine indica (ELEIN)) was 0, the “Control of weed species after post-emergence application, SETFA” value (Setaria faberi (SETFA)) was 10 and the “Control of weed species after post-emergence application, DIGSA” value [5] was 20.

In the case of `Cc1nccc(-c2cc[n+](CCC(=O)O)nc2)n1.O=C([O-])C(F)(F)F` [Compound A55], the “Control of weed species CHEAL after post-emergence application (100=total damage to plant; 0=no damage to plant)” value [1] is reported as 80, the “Control of weed species ECHCG after post-emergence application (100=total damage to plant; 0=no damage to plant)” value [3] is reported as 90 and the “Control of weed species ELEIN after post-emergence application (100=total damage to plant; 0=no damage to plant)” value (Eleusine indica (ELEIN)) is reported as 100. The “Control of weed species EPHHL after post-emergence application (100=total damage to plant; 0=no damage to plant)” value [4] was 70, the “Control of weed species SETFA after post-emergence application (100=total damage to plant; 0=no damage to plant)” value (Setaria faberi (SETFA)) was 100 and the “Control of weed species DIGSA after post-emergence application (100=total damage to plant; 0=no damage to plant)” value [5] was 100.
